Source: patent publication US20120263732A1, “CD40 ANTIBODY FORMULATION AND METHODS” (PFIZER INC., priority 2003, published 2012)

Experiments:
[1] = tested on: CD40(−) colon carcinoma, Lovo; assay: CD40(−) Lovo colon carcinoma growth in SCID-beige mice; type: in vivo, human tumor in SCID-beige mice; details: immune cells present; compared with K562 results
Method: (§1) The effects of a CD40 antibody (21.4.1) on the growth of CD40(−) tumors (e.g., erythroleukemia and colon carcinoma) were examined. In particular, K562 tumors were chosen to assess the efficacy of 21.4.1 against a CD40(−) low immunogenic (class I and II negative) tumor.
(§2) SCID-beige mice were injected SC with the CD40(−) erythroleukemic tumor, K562 (ATCC CCL-243) alone or in the presence of human peripheral blood T cells and DCs. Animals received a single IP injection of 21.4.1 either at the time of tumor injection or 5 days later using various dose levels.
The amount of 21.4.1 to cause a 50% inhibition of tumor growth was 0.005 mg/kg corresponding to a Cmax serum concentration of 0.05 μg/mL. […] The results were identical when 21.4.1 was administered on Day 0 or Day +5 relative to tumor challenge. The growth of these CD40(−) tumors was not inhibited by 21.4.1 in the absence of immune cells.

[2] = tested on: human breast tumor, BT 474; assay: BT 474 breast tumor growth with human T cells and DC in SCID-beige mice; type: in vivo; details: in the presence of immune cells; single injection
Text: SCID-beige mice were challenged with the human breast tumor, BT 474 (ATCC HTB-20), SC, together with human peripheral blood T cells and DC. Animals received a single dose of 21.4.1 (IP) at the time of tumor injection.

[3] = tested on: CD40(+) Raji B cell lymphoma; assay: CD40(+) Raji B cell lymphoma growth in SCID-beige mice; type: in vivo, human tumor in SCID-beige mice
Method: SCID-beige mice were injected subcutaneously with the CD40(+) Raji B cell lymphoma (ATCC CCL-86) (SC) followed by a single dose of 21.4.1 (IP) at the time of tumor injection. Some animals were also injected with human T cells and DC. Tumor growth was assessed on Day 21.

breast tumor, BT 474 = assay: Established BT 474 breast tumors: antibody and/or cisplatin; type: in vivo, human tumor in SCID-beige mice; details: single IP injection once tumors reached 200 mm^2; antibody 1 mg/kg, cisplatin 2.5 mg/kg; Day 84
Method: The therapeutic effects of an anti-CD40 antibody (21.4.1) in preventing the growth of human breast tumors alone and in the presence of cisplatin was examined.
SCID-beige mice were injected SC with the breast tumor, BT 474. The antibody (1 mg/kg, IP) and/or cisplatin (2.5 mg/kg, IP) were administered as a single injection once tumors reached a size of 200 mm^2. Tumor growth was measured on Day 84 after challenge.

B cell lymphoma Daudi = assay: Mortality in systemic Daudi B cell lymphoma model; type: in vivo, human tumor in SCID-beige mice; details: Daudi IV; single IP injection; monitored for 58 days
Method: The ability of an anti-CD40 antibody according to the invention (21.4.1) to delay mortality in a CD40(+) systemic tumor model using a B cell lymphoma was assessed.
SCID-beige mice were injected IV with the B cell lymphoma Daudi (ATCC CCL-213). 21.4.1 was administered as a single injection (IP) at the time of tumor injection. Mortality was monitored for 58 days.

[4] = tested on: CD40(−) erythroleukemic tumor, K562; assay: CD40(−) K562 erythroleukemic tumor growth in SCID-beige mice; type: in vivo, human tumor in SCID-beige mice; details: K562 with human T cells and DC; single IP injection; Day 21
Method: as §1, §2

amount to cause a 50% inhibition of tumor growth (IC50) ([3]; Raji in the absence of immune cells, single IP dose, Day 21) [mg/kg] | amount to cause a 50% inhibition of tumor growth (IC50) [4] [mg/kg] | Molecule | inhibition of Lovo colon carcinoma growth [1] | growth of BT 474 cells [2] | anti-tumor activity against CD40(+) tumors when immune cells were present ([3]; Raji) | tumor growth, single agent (breast tumor, BT 474) | mortality induced by systemically administered tumor cell line (B cell lymphoma Daudi)
 |  | 3.1.1: human anti-CD40 antibody; amino acid sequences SEQ ID NOs:1-4; hybridoma deposit PTA-3600 | demonstrated | demonstrated | demonstrated | demonstrated | demonstrated
< 0.01 | < 0.01 | 3.1.1H-A78T-V88A-V97A/3.1.1L-L4M-L83V: 3.1.1 variant with three heavy chain and two light chain substitutions; SEQ ID NOs:9, 2, 10, 4 |  |  |  |  | 
 |  | N.N.[Cl][Pt][Cl] [cisplatin, cis-diaminedichloroplatinum, reference compound] |  |  |  | prevented tumor growth | 
